Activity calls are given as the source filed them.
Columns and labels:
[1] = target: T1, Polyadenylate-binding protein 1 (Homo sapiens, UniProt P11940); assay: PABP1 MLLE–PAM2 interaction inhibitors, dose response, miRNA deadenylation inhibitor project, biochemical, fluorescence polarization, Cy5-PAM2 peptide, secondary (AID 602260); type: functional; details: read-out: IC50_Mean
[2] = target: T1, Polyadenylate-binding protein 1; assay: PABP1 MLLE–PAM2 binding inhibitor potency, dose response, biochemical, fluorescence polarization, FITC-PAM2 peptide (AID 602259); type: functional; details: read-out: IC50_Mean
Protein RecA = target: T2, Protein RecA (Mycobacterium tuberculosis, UniProt P9WHJ3); assay: Fluorescence Cell-Free Homogeneous Dose Retest to Identify Inhibitors of RecA-Intein Splicing Activity. [Related pubchem assays (depositor defined):AID2097, AID2223, AID489010, AID492950]; type: functional
T2 sequence (P9WHJ3 whole entry): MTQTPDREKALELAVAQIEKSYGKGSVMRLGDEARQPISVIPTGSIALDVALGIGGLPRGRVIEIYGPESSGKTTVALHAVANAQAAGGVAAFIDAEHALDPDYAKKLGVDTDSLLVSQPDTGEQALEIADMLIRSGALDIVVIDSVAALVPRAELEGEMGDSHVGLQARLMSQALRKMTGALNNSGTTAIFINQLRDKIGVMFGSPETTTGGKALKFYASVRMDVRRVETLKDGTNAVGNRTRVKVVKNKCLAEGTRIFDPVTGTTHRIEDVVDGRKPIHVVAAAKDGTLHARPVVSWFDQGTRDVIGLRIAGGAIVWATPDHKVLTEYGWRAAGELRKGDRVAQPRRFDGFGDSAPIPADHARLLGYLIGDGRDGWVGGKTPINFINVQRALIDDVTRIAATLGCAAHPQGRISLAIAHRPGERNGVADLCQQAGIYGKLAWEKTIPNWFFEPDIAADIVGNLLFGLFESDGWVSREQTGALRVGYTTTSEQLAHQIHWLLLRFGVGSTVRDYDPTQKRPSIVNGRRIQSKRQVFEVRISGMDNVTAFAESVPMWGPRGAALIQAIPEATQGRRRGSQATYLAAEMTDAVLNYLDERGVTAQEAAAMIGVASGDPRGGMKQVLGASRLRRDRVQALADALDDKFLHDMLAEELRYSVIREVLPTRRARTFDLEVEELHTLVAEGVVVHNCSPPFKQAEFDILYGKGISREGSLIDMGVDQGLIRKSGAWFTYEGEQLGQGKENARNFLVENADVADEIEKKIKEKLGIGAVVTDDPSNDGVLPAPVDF

Streptococcus = assay: Group A Streptococcus viability loss, dose response, counter-screen for streptokinase expression inhibitor project, luminescence, BacTiterGlo (AID 1915); type: functional, organism-based;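 further: potency for reduction of bacterial viability or growth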
[3] = target: T3, Replicative DNA helicase DnaB (Mycobacterium tuberculosis, UniProt P9WMR3); assay: DnaB intein splicing inhibitors, dose response, biochemical, cell-free fluorescence (AID 449749); type: functional
T3 sequence (P9WMR3 whole entry): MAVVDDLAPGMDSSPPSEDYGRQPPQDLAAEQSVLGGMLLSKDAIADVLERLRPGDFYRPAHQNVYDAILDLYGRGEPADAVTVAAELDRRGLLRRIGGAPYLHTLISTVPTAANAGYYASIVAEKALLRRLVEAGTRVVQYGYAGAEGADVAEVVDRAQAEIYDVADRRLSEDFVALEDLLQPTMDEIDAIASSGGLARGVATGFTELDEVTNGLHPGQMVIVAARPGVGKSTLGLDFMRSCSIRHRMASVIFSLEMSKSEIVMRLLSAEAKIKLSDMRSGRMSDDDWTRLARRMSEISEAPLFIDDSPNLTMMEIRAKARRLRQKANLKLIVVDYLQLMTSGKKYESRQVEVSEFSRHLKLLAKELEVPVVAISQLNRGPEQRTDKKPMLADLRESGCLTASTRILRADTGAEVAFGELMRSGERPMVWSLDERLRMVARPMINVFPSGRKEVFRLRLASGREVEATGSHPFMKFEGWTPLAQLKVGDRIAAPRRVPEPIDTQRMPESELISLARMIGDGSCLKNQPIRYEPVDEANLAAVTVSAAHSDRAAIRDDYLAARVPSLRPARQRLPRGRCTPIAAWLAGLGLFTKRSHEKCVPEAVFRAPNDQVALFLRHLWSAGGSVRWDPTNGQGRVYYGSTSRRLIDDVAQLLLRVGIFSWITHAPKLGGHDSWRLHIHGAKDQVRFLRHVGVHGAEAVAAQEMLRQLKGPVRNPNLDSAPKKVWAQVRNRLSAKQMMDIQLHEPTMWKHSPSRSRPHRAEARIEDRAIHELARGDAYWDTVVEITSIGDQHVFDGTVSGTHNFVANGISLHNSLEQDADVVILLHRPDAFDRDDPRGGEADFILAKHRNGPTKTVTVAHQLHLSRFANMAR

[4] = microbe, parasite or virus in culture; type: functional; details: Mycobacterium tuberculosis
Streptokinase A = target: T4, Streptokinase A (Streptococcus pyogenes serotype M1, UniProt P10520); assay: S. pyogenes streptokinase expression inhibitors, potency, dose response, plasminogen activation absorbance, OD405 (AID 1914); type: functional, Streptococcus pyogenes M1 GAS;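 further: secreted streptokinase activity via plasminogen activation per viability signal from cell pellet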
T4 sequence (P10520 whole entry): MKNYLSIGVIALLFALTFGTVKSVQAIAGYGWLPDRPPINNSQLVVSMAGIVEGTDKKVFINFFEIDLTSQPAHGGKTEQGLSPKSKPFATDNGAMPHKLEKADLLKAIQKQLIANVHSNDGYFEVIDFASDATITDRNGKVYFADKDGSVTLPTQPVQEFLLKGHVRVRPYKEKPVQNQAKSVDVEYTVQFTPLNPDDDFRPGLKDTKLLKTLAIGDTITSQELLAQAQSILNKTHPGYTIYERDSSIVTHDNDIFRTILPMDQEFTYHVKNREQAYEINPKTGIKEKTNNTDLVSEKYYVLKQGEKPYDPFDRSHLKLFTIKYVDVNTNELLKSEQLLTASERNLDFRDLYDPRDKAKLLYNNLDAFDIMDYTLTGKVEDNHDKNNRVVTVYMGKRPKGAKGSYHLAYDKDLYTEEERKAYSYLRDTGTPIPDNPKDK

[5] = test system: Streptococcus sp. 'group A'; assay: growth inhibition of control SK(-) GAS strain, dose response, counter-screen for streptokinase expression inhibitor project, luminescence, kanamycin, BacTiterGlo, confirmation (AID 1900); type: functional, organism-based
H9c2 = assay: cells; type: functional, cell-based; details: Rattus norvegicus, H9c2, Myocardium
cells = type: functional
[6] = target: T5, RNA-binding protein pos-1 (Caenorhabditis elegans, UniProt G5EF15); assay: inhibitors of POS-1/mex-3 RNA binding, dose response, biochemical, fluorescence polarization (AID 1964);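 further: purified POS-1 fused to maltose binding protein made in E. coli; potency of compounds blocking POS-1 binding to fluorescent RNA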
T5 sequence (G5EF15 whole entry): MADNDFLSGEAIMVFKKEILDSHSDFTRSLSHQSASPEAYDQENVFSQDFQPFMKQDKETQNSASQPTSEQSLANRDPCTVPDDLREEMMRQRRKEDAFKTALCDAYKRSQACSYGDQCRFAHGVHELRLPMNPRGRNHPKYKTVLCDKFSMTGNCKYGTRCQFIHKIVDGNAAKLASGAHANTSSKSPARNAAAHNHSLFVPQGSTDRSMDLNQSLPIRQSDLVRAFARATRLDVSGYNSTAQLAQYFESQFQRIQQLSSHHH

[7] = target: T6, Zinc finger protein mex-5 (Caenorhabditis elegans, UniProt Q9XUB2); assay: MEX-5/TCR-2 RNA interaction inhibitors, dose response, biochemical, C. elegans, fluorescence polarization (AID 1960)
T6 sequence (Q9XUB2 whole entry): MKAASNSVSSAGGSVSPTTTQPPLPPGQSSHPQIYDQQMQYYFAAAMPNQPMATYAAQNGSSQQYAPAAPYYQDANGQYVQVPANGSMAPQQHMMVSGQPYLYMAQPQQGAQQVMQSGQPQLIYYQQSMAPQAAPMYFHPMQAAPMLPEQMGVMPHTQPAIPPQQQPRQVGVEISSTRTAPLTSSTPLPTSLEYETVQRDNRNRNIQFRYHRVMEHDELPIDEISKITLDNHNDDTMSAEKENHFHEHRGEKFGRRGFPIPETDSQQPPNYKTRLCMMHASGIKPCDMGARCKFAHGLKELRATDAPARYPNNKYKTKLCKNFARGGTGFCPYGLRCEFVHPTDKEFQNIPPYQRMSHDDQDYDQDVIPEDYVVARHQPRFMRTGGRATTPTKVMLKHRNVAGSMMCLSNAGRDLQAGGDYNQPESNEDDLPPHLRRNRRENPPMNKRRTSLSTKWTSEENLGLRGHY

[8] = target: Glyceraldehyde-3-phosphate dehydrogenase (Homo sapiens, UniProt P04406)
Large T antigen = Large T antigen (Simian virus 40, UniProt P03070); type: functional, Betapolyomavirus macacae;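 further: Confirmatory-stage PubChem screen for compounds that inhibit SV40 T antigen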
[9] = target: T7, Corticotropin-releasing factor receptor 2/Corticotropin-releasing factor-binding protein (Homo sapiens, UniProt P24387+Q13324); assay: Dose Response confirmation of uHTS hits for small molecule antagonists of the CRF-binding protein and CRF-R2 receptor complex.; type: functional; details: read-out: IC50_Mean
T7 sequence (Q13324 whole entry): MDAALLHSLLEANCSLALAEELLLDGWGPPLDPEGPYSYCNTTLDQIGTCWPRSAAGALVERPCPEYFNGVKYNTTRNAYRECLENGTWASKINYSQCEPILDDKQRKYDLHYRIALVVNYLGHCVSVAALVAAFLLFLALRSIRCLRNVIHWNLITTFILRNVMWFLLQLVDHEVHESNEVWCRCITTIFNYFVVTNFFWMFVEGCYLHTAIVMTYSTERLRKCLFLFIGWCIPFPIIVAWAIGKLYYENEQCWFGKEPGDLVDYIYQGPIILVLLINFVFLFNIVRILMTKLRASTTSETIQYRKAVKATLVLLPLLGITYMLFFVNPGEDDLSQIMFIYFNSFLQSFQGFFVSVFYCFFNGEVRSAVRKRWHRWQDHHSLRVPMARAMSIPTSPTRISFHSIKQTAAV
T7 sequence (P24387 whole entry): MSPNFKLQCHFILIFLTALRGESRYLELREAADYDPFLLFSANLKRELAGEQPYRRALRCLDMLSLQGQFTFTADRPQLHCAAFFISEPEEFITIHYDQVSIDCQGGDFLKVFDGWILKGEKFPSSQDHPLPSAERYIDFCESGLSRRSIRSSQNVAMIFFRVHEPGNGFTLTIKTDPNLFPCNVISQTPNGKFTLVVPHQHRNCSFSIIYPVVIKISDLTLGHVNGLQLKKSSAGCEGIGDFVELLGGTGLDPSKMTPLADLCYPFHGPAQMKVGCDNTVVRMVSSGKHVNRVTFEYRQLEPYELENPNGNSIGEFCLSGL

[10] = target: T7, Corticotropin-releasing factor receptor 2/Corticotropin-releasing factor-binding protein; assay: activators of CRF receptor 2 with binding protein – uHTS hits, confirmation (AID 602473); type: functional; details: read-out: EC50_Mean

Large T antigen, sequence (P03070 whole entry): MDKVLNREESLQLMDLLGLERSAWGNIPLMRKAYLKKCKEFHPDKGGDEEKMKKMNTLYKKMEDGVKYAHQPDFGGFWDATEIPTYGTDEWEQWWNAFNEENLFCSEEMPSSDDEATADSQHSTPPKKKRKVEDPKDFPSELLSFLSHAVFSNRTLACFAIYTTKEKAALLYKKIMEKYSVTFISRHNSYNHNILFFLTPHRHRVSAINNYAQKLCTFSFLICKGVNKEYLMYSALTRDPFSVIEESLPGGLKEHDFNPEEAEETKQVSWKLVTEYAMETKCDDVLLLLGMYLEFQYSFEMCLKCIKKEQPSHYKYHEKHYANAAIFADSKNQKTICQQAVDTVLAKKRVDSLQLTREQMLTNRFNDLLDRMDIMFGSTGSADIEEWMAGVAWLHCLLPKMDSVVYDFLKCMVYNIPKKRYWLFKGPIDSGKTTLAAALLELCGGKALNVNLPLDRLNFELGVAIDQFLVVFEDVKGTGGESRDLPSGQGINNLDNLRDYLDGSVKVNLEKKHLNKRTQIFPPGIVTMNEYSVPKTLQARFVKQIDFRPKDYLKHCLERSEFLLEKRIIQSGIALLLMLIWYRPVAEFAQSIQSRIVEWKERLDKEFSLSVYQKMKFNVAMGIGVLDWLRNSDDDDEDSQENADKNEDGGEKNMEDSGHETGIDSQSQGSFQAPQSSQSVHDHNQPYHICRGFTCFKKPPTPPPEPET
T1 sequence (P11940 whole entry): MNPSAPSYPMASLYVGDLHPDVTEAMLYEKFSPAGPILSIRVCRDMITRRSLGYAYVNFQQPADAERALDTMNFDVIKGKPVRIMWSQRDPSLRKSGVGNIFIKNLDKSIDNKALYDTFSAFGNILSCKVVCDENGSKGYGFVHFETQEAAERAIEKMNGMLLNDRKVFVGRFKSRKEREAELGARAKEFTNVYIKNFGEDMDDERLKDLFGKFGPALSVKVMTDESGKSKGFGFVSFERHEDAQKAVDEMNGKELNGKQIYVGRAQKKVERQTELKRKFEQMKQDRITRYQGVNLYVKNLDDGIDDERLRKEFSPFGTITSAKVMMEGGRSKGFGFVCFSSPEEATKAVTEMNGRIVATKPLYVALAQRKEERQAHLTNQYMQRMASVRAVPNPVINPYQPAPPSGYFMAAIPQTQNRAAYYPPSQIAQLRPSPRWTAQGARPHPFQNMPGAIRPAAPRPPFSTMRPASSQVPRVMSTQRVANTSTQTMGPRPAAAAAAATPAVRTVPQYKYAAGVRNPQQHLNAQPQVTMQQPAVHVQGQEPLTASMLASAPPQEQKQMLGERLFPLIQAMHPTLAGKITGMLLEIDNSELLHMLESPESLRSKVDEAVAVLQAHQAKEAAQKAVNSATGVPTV
Glyceraldehyde-3-phosphate dehydrogenase, sequence (P04406 whole entry): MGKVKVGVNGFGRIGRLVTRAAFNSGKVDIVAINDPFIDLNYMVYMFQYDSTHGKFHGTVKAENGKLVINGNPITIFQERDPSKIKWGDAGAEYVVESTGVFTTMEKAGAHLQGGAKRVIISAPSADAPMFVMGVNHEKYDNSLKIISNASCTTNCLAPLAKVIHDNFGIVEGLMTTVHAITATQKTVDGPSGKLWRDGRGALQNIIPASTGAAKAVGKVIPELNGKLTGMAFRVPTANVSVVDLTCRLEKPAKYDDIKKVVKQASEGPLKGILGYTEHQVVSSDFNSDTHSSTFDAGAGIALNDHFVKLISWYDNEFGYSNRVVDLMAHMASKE

## O=C(NC(=S)N1CCCCCC1)c1ccccc1Cl
[1]
  IC50: > 66 µM (inactive)
[2]
  IC50: > 66 µM (inactive)

## COc1ccc(-c2oc(NC(=O)CCl)c(C#N)c2-c2ccc(OC)cc2)cc1
Protein RecA
  EC50: 670 nM (active)
Streptococcus
  EC50: > 150 µM (not active)
[3]
  AC50: 416 nM (active)
[4]
  CC50: 10.1 µM (active)
Streptokinase A
  EC50: 1.16 µM (active)
[5]
  EC50: 1.18 µM (active)

## COc1ccc(C(=O)COC(=O)c2ccc([N+](=O)[O-])s2)cc1OC
H9c2
  IC50: > 79 µM (inactive)
cells
  IC50: 10.6 µM (active)

## COC(=O)c1ccc(C(C(=O)NCc2ccccc2)N(Cc2cccs2)C(=O)c2cnccn2)cc1 (configuration not stated)
H9c2
  IC50: 8.82 µM (active)

## CCC(CC)C(=O)Nc1cc(C)c2c(=O)oc3ccccc3c2n1
H9c2
  IC50: > 79 µM (inactive)

## CCc1ccc(N2C(=O)NC(=O)/C(=C\c3cc(C)n(-c4cc(C(=O)O)cc(C(=O)O)c4)c3C)C2=O)cc1
[6]
  EC50: > 300 µM (not active)
[7]
  EC50: > 300 µM (not active)

## CCC(ONc1ccccc1C(F)(F)F)(C(=O)NN(C)C)c1ccccc1 (configuration not stated)
H9c2
  IC50: 33.3 µM (inactive)

## CCOC(=O)C1CCN(c2cc3c(cc2NC(=O)c2ccccc2Cl)n(C)c(=O)n3C)CC1
H9c2
  IC50: > 79 µM (inactive)

## Cc1ccc(S(=O)(=O)Nc2ccc(O)c(C(=O)O)c2)c(C)c1
[8]
  IC50: > 100 µM (not active)

## O=C(CC1CCCCC1)Nc1nc[nH]n1
[8]
  IC50: > 10 µM (inconclusive)

## O=C(O)CN1C(=O)C2C3CC(C2C1=O)C1C(c2ccc(F)cc2)c2sc(O)nc2SC31 (configuration not stated)
[1]
  IC50: > 66 µM (inactive)
[2]
  IC50: > 66 µM (inactive)

## Cc1ccc2cc3c(N)[nH]nc3nc2c1
Large T antigen
  IC50: 13.1 µM (active)

## CC1CCN(C(=O)CSc2nncn2-c2ccccn2)CC1
[1]
  IC50: > 66 µM (inactive)
[2]
  IC50: > 66 µM (inactive)

## CC(C)C1Nc2ccc(S(N)(=O)=O)cc2C2C=CCC21 (configuration not stated)
[6]
  EC50: 52.4 µM (active)
[7]
  EC50: 30.4 µM (active)

## COc1ccc(OCC(O)Cn2c(Br)nc3c2c(=O)[nH]c(=O)n3C)cc1 (configuration not stated)
H9c2
  IC50: 16.4 µM (active)

## Cc1cc2cc(CNC(=O)Cc3cccs3)ccc2n1C
[1]
  IC50: > 66 µM (inactive)
[2]
  IC50: > 66 µM (inactive)

## CC(C)OCCCNC(=O)CCC(=O)NNc1nc2ccccc2c2nc(-c3ccccc3)nn12
H9c2
  IC50: 13.5 µM (active)

## NC(=S)c1cnn2c(-c3cccc(C(F)(F)F)c3)ccnc12
[1]
  IC50: > 66 µM (inactive)
[2]
  IC50: > 66 µM (inactive)

## O=C(COc1ccc(Cl)cc1)NCc1nnc(O)c2ccccc12
H9c2
  IC50: > 79 µM (inactive)

## Cc1nnc(Nc2ccc(O)cc2)nc1O
Large T antigen
  IC50: 33 µM (active)

## CN(C)/C=C/C(=O)c1cnc(-c2ccccc2Cl)s1
[6]
  EC50: > 300 µM (not active)
[7]
  EC50: > 300 µM (not active)

## Cc1ccccc1NC(=O)CSC(=O)c1ccccc1
[1]
  IC50: > 66 µM (inactive)
[2]
  IC50: > 66 µM (inactive)

## C/C(=N/NS(=O)(=O)c1cccc([N+](=O)[O-])c1)c1c[nH]c2ccccc12
Large T antigen
  IC50: 17 µM (active)

## N#CC1=C(N)OC2=C(C(=O)CC(c3ccccc3)C2)C1c1ccc2c(c1)OCO2 (configuration not stated)
[9]
  IC50: > 47.1 µM (inactive)
[6]
  EC50: > 300 µM (not active)
[7]
  EC50: > 300 µM (not active)
[10]
  EC50: > 53 µM (inactive)

Reference: ChEMBL document CHEMBL1201862, “PubChem BioAssay data set” (2004)
